Test results reported in patent US8772304B2, “Benzimidazole inhibitors of leukotriene production” (Boehringer Ingelheim International GmbH, priority 2010, dated 2014).

Legend:
[1] = molecular target: recombinant human FLAP protein (Homo sapiens (Human), UniProt P20292); assay: FLAP binding assay (Scintillation Proximity Assay, displacement of iodinated FLAP inhibitor); conditions: displacement of [125I]L-691,831; membranes of sf9 cells expressing recombinant human FLAP; read-out: hFLAP binding IC50
Protocol: Compounds are assessed for the ability to bind to FLAP in a binding assay that measures compound-specific displacement of an iodinated (^125I) FLAP inhibitor via a Scintillation Proximity Assay format (adapted from S. Charleson et al., Mol. Pharmacol., 1992, 41, 873-879).
Cell pellets produced from sf9 insect cells expressing recombinant human FLAP protein are resuspended in buffer A [15 mM Tris-HCl (pH 7.5), 2 mM MgCl2, 0.3 mM EDTA, 1 mM PMSF]. The cells are lysed with a Dounce homogenizer and the material is centrifuged at 10,000×g for 10 minutes. The supernatant is then collected and centrifuged at 100,000×g for 60 minutes. To prepare membrane protein for an assay, an aliquot of the 100,000×g pellet is resuspended in 1 ml of buffer A, Dounce homogenized, and finally subjected to polytron mixing (30 seconds). Membrane protein (25 μl, 5 μg) is mixed with WGA SPA beads (Amersham) and stirred for 1 h. […] (final concentrations: beads, 200 μg/well; protein, 5 μg/well; [^125I] probe, 0 08 nM/well (17 nCi/well). The plates are shaken for 2 h before reading on a Microbeta plate reader. Non-specific binding is determined by the addition of 10 μM cold L-691,831 compound.

[2] = tested on: synthesis of LTB4 in human whole blood; assay: human whole blood LTB4 production inhibition assay; assay type: cell-based; conditions: heparinized human whole blood, calcimycin 20 μM stimulation, plasma LTB4; read-out: hWB IC50
Protocol: Compounds are additionally tested in a human whole blood assay to determine their ability to inhibit the synthesis of LTB4 in a cellular system. Compounds are combined with heparinized human whole blood and incubated for 15 minutes at 37° C. Calcimycin (20 μM final, prepared in phosphate-buffered saline, pH 7.4) is then added and the mixture is incubated for another 30 minutes at 37° C. The samples are centrifuged for 5 min at low speed (1500×g) and the plasma layer is removed. Plasma LTB4 concentrations are then measured using an antibody-based homogenous time-resolved fluorescence method (CisBio, Bedford, Mass.).

recombinant human FLAP protein, sequence (P20292 whole entry): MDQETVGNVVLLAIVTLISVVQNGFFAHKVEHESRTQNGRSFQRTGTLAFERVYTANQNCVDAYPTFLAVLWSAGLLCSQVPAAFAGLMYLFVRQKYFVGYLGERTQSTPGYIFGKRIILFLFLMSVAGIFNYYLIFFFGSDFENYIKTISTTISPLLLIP

| SMILES | IC50 [1] | IC50 [2] |
| --- | --- | --- |
| CC(C)(C)n1c(-c2nc(C#N)ccc2-n2cncn2)nc2cc(-c3cnc(N)nc3)ccc21 [Example 1, 6-[5-(2-Amino-pyrimidin-5-yl)-1-tert-butyl-1H-benzimidazol-2-yl]-5-1,2,4-triazol-1-yl-pyridine-2-carbonitrile] | 7.1 nM | 30 nM |
| Cc1ncn(-c2ccc(C#N)nc2-c2nc3cc(-c4cnc(N)nc4)ccc3n2C(C)(C)C)n1 [Example 2, 6-[5-(2-Amino-pyrimidin-5-yl)-1-tert-butyl-1H-benzimidazol-2-yl]-5-(3-methyl-1,2,4-triazol-1-yl)-pyridine-2-carbonitrile] | 4.2 nM | 36 nM |
| Cc1ncnn1-c1ccc(C#N)nc1-c1nc2cc(-c3cnc(N)nc3)ccc2n1C(C)(C)C [Example 3, 6-[5-(2-Amino-pyrimidin-5-yl)-1-tert-butyl-1H-benzimidazol-2-yl]-5-(5-methyl-1,2,4-triazol-1-yl)-pyridine-2-carbonitrile] | 5.9 nM | 89 nM |
| CC(C)(C)n1c(-c2nc(C3CC3)ccc2-n2cncn2)nc2cc(-c3cnc(N)nc3)ccc21 [Example 4, 5-[1-tert-Butyl-2-(6-cyclopropyl-3-1,2,4-triazol-1-yl-pyridin-2-yl)-1H-benzimidazol-5-yl]-pyrimidin-2-ylamine] | 13 nM | 140 nM |
| Cc1ncn(-c2ccc(C#N)nc2-c2nc3cc(-c4cnc(N)nc4)ccc3n2C2(C)CCC2)n1 [Example 5, 6-[5-(2-Amino-pyrimidin-5-yl)-1-(1-methyl-cyclobutyl)-1H-benzimidazol-2-yl]-5-(3-methyl-1,2,4-triazol-1-yl)-pyridine-2-carbonitrile] | 29 nM | 256 nM |
| Cc1ncnn1-c1ccc(C#N)nc1-c1nc2cc(-c3cnc(N)nc3)ccc2n1C1(C)CCC1 [Example 6, 6-[5-(2-Amino-pyrimidin-5-yl)-1-(1-methyl-cyclobutyl)-1H-benzimidazol-2-yl]-5-(5-methyl-1,2,4-triazol-1-yl)-pyridine-2-carbonitrile] | 86 nM | 894 nM |
| COC(=O)c1cccnc1-c1nc2cc(-c3cnc(N)nc3)ccc2n1C(C)(C)C [Example 7, 2-[5-(2-Amino-pyrimidin-5-yl)-1-tert-butyl-1H-benzimidazol-2-yl]-nicotinic acid methyl esler] | 540 nM | 3100 nM |
| CNC(=O)c1cccnc1-c1nc2cc(-c3cnc(N)nc3)ccc2n1C(C)(C)C [Example 8, 2-[5-(2-Amino-pyrimidin-5-yl)-1-tert-butyl-1H-benzimidazol-2-yl]-N-methyl-nicotinamide] | 620 nM | 1700 nM |
| COC(=O)c1ccc(C#N)nc1-c1nc2cc(-c3cnc(N)nc3)ccc2n1C(C)(C)C [Example 9, 2-[5-(2-Amino-pyrimidin-5-yl)-1-tert-butyl-1H-benzimidazol-2-yl]-6-cyano-nicotinic acid methyl ester] | 110 nM | 387 nM |
| CNC(=O)c1ccc(C#N)nc1-c1nc2cc(-c3cnc(N)nc3)ccc2n1C(C)(C)C [Example 10, 2-[5-(2-Amino-pyrimidin-5-yl)-1-tert-butyl-1H-benzimidazol-2-yl]-6-cyano-N-methyl-nicotinamide] | 138 nM | 422 nM |
| COc1cccc(-c2nc3cc(-c4cnc(N)nc4)ccc3n2C(C)(C)C)n1 [Example 11, 5-[1-tert-Butyl-2-(6-methoxy-pyridin-2-yl)-1H-benzimidazol-5-yl]-pyrimidin-2-ylamine] | 46 nM | – |
| CC(C)(C)n1c(-c2ccccn2)nc2cc(-c3cnc(N)nc3)ccc21 [Example 12, 5-(1-tert-Butyl-2-pyridin-2-yl-1H-benzimidazol-5-yl)-pyrimidin-2-ylamine] | 700 nM | – |
| CC(C)(C)Oc1cccc(-c2nc3cc(-c4cnc(N)nc4)ccc3n2C(C)(C)C)n1 [Example 13, 5-[2-(6-tert-Butoxy-pyridin-2-yl)-1-tert-butyl-1H-benzimidazol-5-yl]-pyrimidin-2-ylamine] | 51 nM | – |
| CC(C)(C)n1c(-c2cccc(F)n2)nc2cc(-c3cnc(N)nc3)ccc21 [Example 14, 5-[1-tert-Butyl-2-(6-fluoro-pyridin-2-yl)-1H-benzimidazol-5-yl]-pyrimidin-2-ylamine] | 279 nM | – |
| CC(C)(C)n1c(-c2cccc(F)n2)nc2cc(-c3cnc(NCc4cccc(F)n4)nc3)ccc21 [Example 15, {5-[1-tert-Butyl-2-(6-fluoro-pyridin-2-yl)-1H-benzimidazol-5-yl]-pyrimidin-2-yl}-(6-fluoro-pyridin-2-ylmethyl)-amine] | 870 nM | – |
| COc1cccnc1-c1nc2cc(-c3cnc(N)nc3)ccc2n1C(C)(C)C [Example 16, 5-[1-tert-Butyl-2-(3-methoxy-pyridin-2-yl)-1H-benzimidazol-5-yl]-pyrimidin-2-ylamine] | 960 nM | – |
| COc1cc(-c2nc3cc(-c4cnc(N)nc4)ccc3n2C(C)(C)C)c(F)cn1 [Example 17, 5-[1-tert-Butyl-2-(5-fluoro-2-methoxy-pyridin-4-yl)-1H-benzimidazol-5-yl]-pyrimidin-2-ylamine] | 58 nM | 58 nM |
| CC(C)(C)n1c(-c2ccncc2)nc2cc(-c3cnc(N)nc3)ccc21 [Example 18, 5-(1-tert-Butyl-2-pyridin-4-yl-1H-benzimidazol-5-yl)-pyrimidin-2-ylamine] | 450 nM | 449 nM |
| CC(C)(C)n1c(-c2cccnc2-n2cncn2)nc2cc(-c3cnc(N)nc3)ccc21 [Example 20, 5-[1-tert-Butyl-2-(2-1,2,4-triazol-1-yl-pyridin-3-yl)-1H-benzimidazol-5-yl]-pyrimidin-2-ylamine] | 19 nM | 447 nM |
| CC(C)(C)n1c(-c2cc(F)cnc2-n2cncn2)nc2cc(-c3cnc(N)nc3)ccc21 [Example 21, 5-[1-tert-Butyl-2-(5-fluoro-2-1,2,4-triazol-1-yl-pyridin-3-yl)-1H-benzimidazol-5-yl]-pyrimidin-2-ylamine] | 20 nM | 253 nM |
| CC(C)(C)n1c(-c2cc(Cl)cnc2-n2cncn2)nc2cc(-c3cnc(N)nc3)ccc21 [Example 22, 5-[1-tert-Butyl-2-(5-chloro-2-1,2,4-triazol-1-yl-pyridin-3-yl)-1H-benzimidazol-5-yl]-pyrimidin-2-ylamine] | 3.2 nM | 116 nM |
| CC(C)(C)n1c(-c2cc(Br)cnc2-n2cncn2)nc2cc(-c3cnc(N)nc3)ccc21 [Example 23, 5-[2-(5-Bromo-2-1,2,4-triazol-1-yl-pyridin-3-yl)-1-tert-butyl-1H-benzimidazol-5-yl]-pyrimidin-2-ylamine] | 4 nM | 81 nM |
| Cc1ncnn1-c1ncccc1-c1nc2cc(-c3cnc(N)nc3)ccc2n1C(C)(C)C [Example 24, 5-{1-tert-Butyl-2-[2-(5-methyl-1,2,4-triazol-1-yl)-pyridin-3-yl]-1H-benzimidazol-5-yl}-pyrimidin-2-ylamine] | 23 nM | 242 nM |
| Cc1ncn(-c2ncccc2-c2nc3cc(-c4cnc(N)nc4)ccc3n2C(C)(C)C)n1 [Example 25, 5-{1-tert-Butyl-2-[2-(3-methyl-1,2,4-triazol-1-yl)-pyridin-3-yl]-1H-benzimidazol-5-yl}-pyrimidin-2-ylamine] | 12 nM | 278 nM |
| CC(C)(C)n1c(-c2cc(C#N)cnc2-n2cncn2)nc2cc(-c3cnc(N)nc3)ccc21 [Example 26, 5-[5-(2-Amino-pyrimidin-5-yl)-1-tert-butyl-1H-benzimidazol-2-yl]-6-1,2,4-triazol-1-yl-nicotinonitrile] | 10 nM | 75 nM |
| COc1cncc(-c2nc3cc(-c4cnc(N)nc4)ccc3n2C(C)(C)C)c1 [Example 29, 5-[1-tert-Butyl-2-(5-methoxy-pyridin-3-yl)-1H-benzimidazol-5-yl]-pyrimidin-2-ylamine] | 300 nM | – |
| CC(C)(C)n1c(-c2ccc(N3CCOCC3)nc2)nc2cc(-c3cnc(N)nc3)ccc21 [Example 30, 5-[1-tert-Butyl-2-(6-morpholin-4-yl-pyridin-3-yl)-1H-benzimidazol-5-yl]-pyrimidin-2-ylamine] | 180 nM | – |
| CC(C)(C)n1c(-c2cccnc2)nc2cc(-c3cnc(N)nc3)ccc21 [Example 31, 5-(1-tert-Butyl-2-pyridin-3-yl-1H-benzimidazol-5-yl)-pyrimidin-2-ylamine] | 542 nM | – |
| COc1ncccc1-c1nc2cc(-c3cnc(N)nc3)ccc2n1C(C)(C)C [Example 32, 5-[1-tert-Butyl-2-(2-methoxy-pyridin-3-yl)-1H-benzimidazol-5-yl]-pyrimidin-2-ylamine] | 220 nM | – |
| CCOc1ncccc1-c1nc2cc(-c3cnc(N)nc3)ccc2n1C(C)(C)C [Example 33, 5-[1-tert-Butyl-2-(2-ethoxy-pyridin-3-yl)-1H-benzimidazol-5-yl]-pyrimidin-2-ylamine] | 34 nM | – |
